Consider five molecules from patent US20250034212A1, “PEPTIDE” (PEPTIDREAM INC., priority 2021, published 2025).

Assay [1] concerns the target T1, recombinant human TGF-β1 (Homo sapiens, UniProt P01137).
T1 construct: purchased R&D systems
Description: SBE reporter assay in SBE reporter-HEK293 cells, TGF-β1 stimulation. Format: cell-based. To be noted: for inhibition at 62 pM: peptide 0.062 nM; for inhibition at 0.000185 µM: peptide 0.185 nM; for inhibition at 0.00056 µM: peptide 0.56 nM; for inhibition at 0.0017 µM: peptide 1.7 nM; for inhibition at 0.005 µM: peptide 5.0 nM; for inhibition at 0.015 µM: peptide 15.0 nM. Put shortly:
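SBE luciferase reporter HEK293 cells in 0.5% FBS medium, preincubated 20 min with peptide, then stimulated 18 h with 0.13 nM recombinant human TGF-β1. Luminescence read; inhibition scaled with maximal TGF-β signal as 0% and unstimulated as 100%.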

In assay [2] the target is T1, recombinant human TGF-β1. The assay is described as follows: SPR intermolecular interaction test, TGF-β1 immobilized on CM3 sensor chip (Biacore T200). Format: binding. To be noted: for Kd: Single Cycle Kinetics, human TGF-β1. How it is done: In this Example, (1) the activity of binding to TGF-β for various peptides consisting of the amino acid sequences set forth in SEQ ID NOs: 2-33 synthesized in Examples 1 to 5 and 7 was evaluated. (2) The activity and selectivity of binding of the peptide consisting of the amino acid sequence set forth in SEQ ID NO: 13 synthesized in Example 2 against two isoforms of TGF-β (TGF-β1 and β2) were checked. For this purpose, the intermolecular interaction of each peptide against TGF-β was tested by surface plasmon resonance (SPR) in the method described below. Specific test methods are described below.
A CM3 sensor chip (Global Life Science Technologies Japan Co., Ltd.) was inserted into a BiacoreT200 (Global Life Science Technologies Japan Co., Ltd.). Three priming runs were performed using running buffer: HBS-EP+ (Global Life Science Technologies Japan Co., Ltd.). The system was then equilibrated at a flow rate of 30 μL/min.
Subsequently, 50 μL of 60 mM EDC solution (Global Life Science Technologies Japan Co., Ltd.) and 50 μL of 650 mM NHS solution (Global Life Science Technologies Japan Co., Ltd.) were mixed. Next, the reaction was carried out at a flow rate of 10 μL/min for 420 seconds. Then, 150 μL of 0.2 μM TGF-β solution diluted in 10 mM acetic acid solution (pH 5.0) was prepared and reacted at a flow rate of 10 μL/min for 420 seconds to immobilize TGF-β on the CM3 sensor chip. TGF-β was human-derived TGF-β1 or β2 (recombinant human TGF-β1, 2) and was obtained from R&D systems. After immobilization, capping was performed by reacting with 1.0 M ethanolamine aqueous solution (Global Life Science Technologies Japan Co., Ltd.) at a flow rate of […] for 420 seconds.
A liquid prepared by dissolving each peptide at 10 mM in DMSO solution was diluted with running buffer to prepare a peptide-dissolved solution at a final concentration of 10 μM. Subsequently, 50 nM, 25 nM, 12.5 nM, 5 nM, and 2.5 nM peptide solutions were prepared. Using the above samples, the kinetics of each peptide against TGF-β was obtained by SPR measurement.
The kinetics evaluation model was Single Cycle Kinetics, and curve fitting was performed using Biacore T200 Evaluation Software Version 3.0 (Global Life Science Technologies Japan Co., Ltd.). The binding of various peptides to TGF-β was evaluated by performing least-squares curve fitting on the obtained sensorgram to calculate the KD value.
(Surface plasmon resonance follows binding to a sensor surface in real time, without labels.)

Starred links: 1 amine or outer side, 2 acyl side, 3 side chain; linkers in the order of their positions; H or OH if unused. Positions of bridges follow the written chain, without caps; N, C: chain ends. Non-standard residues stand in square brackets, D forms with d. Residues, ends and D or L forms follow the SMILES beside them. Groups on a side chain read outwards from the residue. *: point of attachment. CH3O(CH2CH2O)7C2H4CO = COCCOCCOCCOCCOCCOCCOCCOCCC(=O)*; Meglumine = CN(C[C@H](O)[C@@H](O)[C@H](O)[C@H](O)CO)*; Piperazinyl(4-CH2COOH) = O=C(O)CN1CCN(*)CC1; 1Nal = N[C@@H](Cc1cccc2ccccc12)C(=O)O; Gly(NCH2CH2Ph) = O=C(O)CNCCc1ccccc1; 4Pal = N[C@@H](Cc1ccncc1)C(=O)O; CO = O=C([*:1])[*:2]

T1 sequence (P01137 279-390 limits assumed): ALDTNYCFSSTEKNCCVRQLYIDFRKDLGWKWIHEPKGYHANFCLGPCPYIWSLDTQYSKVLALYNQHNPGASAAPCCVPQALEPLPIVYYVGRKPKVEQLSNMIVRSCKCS

Consider `COCCOCCOCCOCCOCCOCCOCCOCCC(=O)NCCCC[C@H](NC(=O)CNC(=O)[C@@H]1CSCC(=O)N[C@@H](Cc2ccccc2)C(=O)N[C@@H](Cc2cccc3ccccc23)C(=O)N[C@@H](C(C)C)C(=O)N[C@@H](C(C)C)C(=O)N[C@@H](CC(N)=O)C(=O)N[C@@H](C(C)C)C(=O)N[C@@H](Cc2ccncc2)C(=O)N[C@@H](CC(=O)O)C(=O)N[C@@H](CC(=O)O)C(=O)N(CCc2ccccc2)CC(=O)N[C@@H](C(C)C)C(=O)N[C@@H](Cc2cccc3ccccc23)C(=O)N[C@@H](Cc2ccc(O)cc2)C(=O)N[C@@H](Cc2c[nH]cn2)C(=O)N[C@@H](CCCCNC(=O)N2CCN(CC(=O)O)CC2)C(=O)N1)C(N)=O` [TGFb1_031] ({CH2CO}-F[1Nal]VVNV[4Pal]DD[Gly(NCH2CH2Ph)]V[1Nal]YHK([CO-Piperazinyl(4-CH2COOH)])CGK(CH3O(CH2CH2O)7C2H4CO)-NH2; thioether N-16), for which, in assay [1] (TGF-β1 0.13 nM, 18 hours), the inhibition at 62 pM is 9.29%, the inhibition at 0.000185 µM worked out at 20.1%, the inhibition at 0.00056 µM amounted to 51.9% and the inhibition at 0.0017 µM stood at 84.9%. Moreover, in assay [1] (TGF-β1 0.13 nM, 18 hours), the inhibition at 0.005 µM was determined as 96.7% and the inhibition at 0.015 µM turned out to be 99.1%. The equilibrium dissociation constant (Kd) in assay [2] amounted to 0.91 nM.
For the molecule `CC(C)[C@@H]1NC(=O)CN(CCc2ccccc2)C(=O)[C@H](CC(=O)O)NC(=O)[C@H](CC(=O)O)NC(=O)[C@H](Cc2ccc(O)cc2)NC(=O)[C@H](C(C)C)NC(=O)[C@H](CC(N)=O)NC(=O)[C@H](C(C)C)NC(=O)[C@H](C(C)C)NC(=O)[C@H](Cc2cccc3ccccc23)NC(=O)[C@H](Cc2ccccc2)NC(=O)CSC[C@@H](C(=O)NCC(N)=O)NC(=O)[C@H](C(C)C)NC(=O)[C@H](Cc2c[nH]cn2)NC(=O)[C@H](Cc2ccc(O)cc2)NC(=O)[C@H](Cc2cccc3ccccc23)NC1=O` [TGFb1_001, F-Nal1-V-V-N-V-Y-D-D-PeG-V-Nal1-Y-H-V-C-G] ({CH2CO}-F[1Nal]VVNVYDD[Gly(NCH2CH2Ph)]V[1Nal]YHVCG-NH2; thioether N-16), in assay [1] (SBE reporter assay, FIG. 1 and Tables 2 and 3), the “TGF-β1 antagonist / inhibitory activity (in words)” value is “TGF-β antagonist activity”. The inhibition at 75 pM in assay [1] (peptide 0.075 nM, TGF-β1 0.13 nM, 18 hours) was 19.7%. The inhibition at 0.00075 µM in assay [1] (peptide 0.75 nM, TGF-β1 0.13 nM, 18 hours) turned out to be 69.7%. Besides, the inhibition at 0.0075 µM in assay [1] (peptide 7.5 nM, TGF-β1 0.13 nM, 18 hours) came to 98.1%. For the same molecule, the inhibition at 0.075 µM in assay [1] (peptide 75.0 nM, TGF-β1 0.13 nM, 18 hours) came out at 101%. Besides, the “ability of binding to TGF-β1 (in words)” value in assay [2] was “confirmed to have TGF-β binding activity”.
Turning to `CC(C)[C@@H]1NC(=O)CN(CCc2ccccc2)C(=O)[C@H](CC(=O)O)NC(=O)[C@H](CC(=O)O)NC(=O)[C@H](Cc2ccncc2)NC(=O)[C@H](C(C)C)NC(=O)[C@H](CC(N)=O)NC(=O)[C@H](CCCCNC(=O)N2CCN(CC(=O)O)CC2)NC(=O)[C@H](C(C)C)NC(=O)[C@H](Cc2cccc3ccccc23)NC(=O)[C@H](Cc2ccccc2)NC(=O)CSC[C@@H](C(=O)NCC(N)=O)NC(=O)[C@H](CCCCNC(=O)N2CCN(CC(=O)O)CC2)NC(=O)[C@H](Cc2c[nH]cn2)NC(=O)[C@H](Cc2ccc(O)cc2)NC(=O)[C@H](Cc2cccc3ccccc23)NC1=O` [TGFb1_019] ({CH2CO}-F[1Nal]VK([CO-Piperazinyl(4-CH2COOH)])NV[4Pal]DD[Gly(NCH2CH2Ph)]V[1Nal]YHK([CO-Piperazinyl(4-CH2COOH)])CG-NH2; thioether N-16), in assay [1] (TGF-β1 0.13 nM, 18 hours), the inhibition at 62 pM was determined as 5.21%, the inhibition at 0.000185 µM amounted to 11.3%, the inhibition at 0.00056 µM was determined as 30.2% and the inhibition at 0.0017 µM was found to be 61.6%. For the same molecule, in assay [1] (TGF-β1 0.13 nM, 18 hours), the inhibition at 0.005 µM was determined as 87.8% and the inhibition at 0.015 µM is 96.4%. Besides, the equilibrium dissociation constant (Kd) in assay [2] is 1.41 nM.
As for `CC(C)[C@@H]1NC(=O)CN(CCc2ccccc2)C(=O)[C@H](CC(=O)O)NC(=O)[C@H](CC(=O)O)NC(=O)[C@H](Cc2ccncc2)NC(=O)[C@H](C(C)C)NC(=O)[C@H](CC(N)=O)NC(=O)[C@H](CCCCNC(=O)N(C)C[C@H](O)[C@@H](O)[C@H](O)[C@H](O)CO)NC(=O)[C@H](C(C)C)NC(=O)[C@H](Cc2cccc3ccccc23)NC(=O)[C@H](Cc2ccccc2)NC(=O)CSC[C@@H](C(=O)NCC(N)=O)NC(=O)[C@H](CCCCNC(=O)N2CCN(CC(=O)O)CC2)NC(=O)[C@H](Cc2c[nH]cn2)NC(=O)[C@H](Cc2ccc(O)cc2)NC(=O)[C@H](Cc2cccc3ccccc23)NC1=O` [TGFb1_020] ({CH2CO}-F[1Nal]VK([CO-Meglumine])NV[4Pal]DD[Gly(NCH2CH2Ph)]V[1Nal]YHK([CO-Piperazinyl(4-CH2COOH)])CG-NH2; thioether N-16), in assay [1] (TGF-β1 0.13 nM, 18 hours), the inhibition at 62 pM was 8.5%, the inhibition at 0.000185 µM was determined as 15.8%, the inhibition at 0.00056 µM worked out at 36.3% and the inhibition at 0.0017 µM came to 70.4%. Moreover, in assay [1] (TGF-β1 0.13 nM, 18 hours), the inhibition at 0.005 µM is 89.3% and the inhibition at 0.015 µM came out at 96.9%. Further, the Kd in assay [2] is 1.26 nM.
Regarding `CC(C)[C@@H]1NC(=O)CN(CCc2ccccc2)C(=O)[C@H](CCCCNC(=O)N(C)C[C@H](O)[C@@H](O)[C@H](O)[C@H](O)CO)NC(=O)[C@H](CC(=O)O)NC(=O)[C@H](Cc2ccncc2)NC(=O)[C@H](C(C)C)NC(=O)[C@H](CC(N)=O)NC(=O)[C@H](C(C)C)NC(=O)[C@H](C(C)C)NC(=O)[C@H](Cc2cccc3ccccc23)NC(=O)[C@H](Cc2ccccc2)NC(=O)CSC[C@@H](C(=O)NCC(N)=O)NC(=O)[C@H](CCCCNC(=O)N2CCN(CC(=O)O)CC2)NC(=O)[C@H](Cc2c[nH]cn2)NC(=O)[C@H](Cc2ccc(O)cc2)NC(=O)[C@H](Cc2cccc3ccccc23)NC1=O` [TGFb1_023] ({CH2CO}-F[1Nal]VVNV[4Pal]DK([CO-Meglumine])[Gly(NCH2CH2Ph)]V[1Nal]YHK([CO-Piperazinyl(4-CH2COOH)])CG-NH2; thioether N-16), in assay [1] (TGF-β1 0.13 nM, 18 hours), the inhibition at 62 pM came to 8.58%, the inhibition at 0.000185 µM was found to be 24.4%, the inhibition at 0.00056 µM stood at 49.7% and the inhibition at 0.0017 µM is 82.3%. Besides, in assay [1] (TGF-β1 0.13 nM, 18 hours), the inhibition at 0.005 µM came out at 96% and the inhibition at 0.015 µM came to 99.5%. Further, the Kd in assay [2] amounted to 1.04 nM.

A word on the inhibition: it is the change of the read-out against control, counted positive when it falls. As usually defined, the Kd is the free concentration of one partner at which half of the binding sites on the other are occupied at equilibrium, for simple one-to-one binding.
